Measurements: patent US9302999B2, “Substituted triazoles as herbicides” (E. I. DU PONT DE NEMOURS AND COMPANY, priority 2012, dated 2016)

Legend:
Assay type in all cases: in vivo
[1] = test system: arrowleaf sida (Sida rhombifolia); experiment: Test E pre-/postemergence: arrowleaf sida; details: scale 0 to 100
Procedure, shortened: (§1)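 Scores reflect greenhouse visual evaluation after 14–21 days, 0 meaning no effect and 100 complete control relative to untreated plants, for pre- and postemergence (1–4 leaf) applications.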

[2] = test system: crabgrass, Brazil (Brazilian crabgrass, Digitaria horizontalis); experiment: Test E pre-/postemergence: crabgrass, Brazil; details: scale 0 to 100
Procedure, shortened: as §1

[3] = test system: smartweed (ladysthumb smartweed, Polygonum persicaria); experiment: Test E pre-/postemergence: smartweed; details: Postemergence, scale 0 to 100
Procedure, shortened: as §1

[4] = test system: morningglory (Ipomoea coccinea); experiment: Test E pre-/postemergence: morningglory; details: Preemergence, scale 0 to 100
Procedure, shortened: as §1

[5] = test system: velvetleaf (Abutilon theophrasti); experiment: Test E pre-/postemergence: velvetleaf; details: Preemergence, scale 0 to 100
Procedure, shortened: as §1

[6] = test system: goosegrass (Eleusine indica); experiment: Test E pre-/postemergence: goosegrass; details: Preemergence, scale 0 to 100
Procedure, shortened: as §1

[7] = test system: poinsettia, wild (wild poinsettia, Euphorbia heterophylla); experiment: Test E pre-/postemergence: poinsettia, wild; details: scale 0 to 100
Procedure, shortened: as §1

[8] = test system: panicum, fall (fall panicum, Panicum dichotomiflorum); experiment: Test E pre-/postemergence: panicum, fall; details: scale 0 to 100
Procedure, shortened: as §1

[9] = test system: ragweed (common ragweed, Ambrosia elation); experiment: Test E pre-/postemergence: ragweed; details: Preemergence, scale 0 to 100
Procedure, shortened: as §1

[10] = test system: foxtail, green (green foxtail, Setaria viridis); experiment: Test E pre-/postemergence: foxtail, green; details: Preemergence, scale 0 to 100
Procedure, shortened: as §1

## Cc1nn(-c2ccc(C(F)(F)F)cc2)nc1Oc1ccnc(C(F)(F)F)c1 [Compound 120]
[1]; Postemergence, 8 g ai/ha
  Plant response rating: Arrowleaf Sida: 30
[1]; Postemergence, 16 g ai/ha
  Plant response rating: Arrowleaf Sida: 40
[1]; Postemergence, 31 g ai/ha
  Plant response rating: Arrowleaf Sida: 40
[1]; Postemergence, 62 g ai/ha
  Plant response rating: Arrowleaf Sida: 50
[1]; Postemergence, 125 g ai/ha
  Plant response rating: Arrowleaf Sida: 50
[1]; Preemergence, 16 g ai/ha
  Plant response rating: Arrowleaf Sida: 0
[1]; Preemergence, 31 g ai/ha
  Plant response rating: Arrowleaf Sida: 0
[1]; Preemergence, 62 g ai/ha
  Plant response rating: Arrowleaf Sida: 0
[1]; Preemergence, 125 g ai/ha
  Plant response rating: Arrowleaf Sida: 15
[1]; Preemergence, 250 g ai/ha
  Plant response rating: Arrowleaf Sida: 50
[2]; Postemergence, 8 g ai/ha
  Plant response rating: Crabgrass, Brazil: 10
[2]; Postemergence, 16 g ai/ha
  Plant response rating: Crabgrass, Brazil: 15
[2]; Postemergence, 31 g ai/ha
  Plant response rating: Crabgrass, Brazil: 25
[2]; Postemergence, 62 g ai/ha
  Plant response rating: Crabgrass, Brazil: 30
[2]; Postemergence, 125 g ai/ha
  Plant response rating: Crabgrass, Brazil: 40
[2]; Preemergence, 16 g ai/ha
  Plant response rating: Crabgrass, Brazil: 90
[2]; Preemergence, 31 g ai/ha
  Plant response rating: Crabgrass, Brazil: 100
[2]; Preemergence, 62 g ai/ha
  Plant response rating: Crabgrass, Brazil: 100
[2]; Preemergence, 125 g ai/ha
  Plant response rating: Crabgrass, Brazil: 100
[2]; Preemergence, 250 g ai/ha
  Plant response rating: Crabgrass, Brazil: 100
[3]; 8 g ai/ha
  Plant response rating: Smartweed: 10
[3]; 16 g ai/ha
  Plant response rating: Smartweed: 10
[3]; 125 g ai/ha
  Plant response rating: Smartweed: 40
[4]; 16 g ai/ha
  Plant response rating: Morningglory: 0
[4]; 31 g ai/ha
  Plant response rating: Morningglory: 30
[4]; 62 g ai/ha
  Plant response rating: Morningglory: 35
[4]; 125 g ai/ha
  Plant response rating: Morningglory: 60
[4]; 250 g ai/ha
  Plant response rating: Morningglory: 60
[5]; 16 g ai/ha
  Plant response rating: Velvetleaf: 15
[5]; 31 g ai/ha
  Plant response rating: Velvetleaf: 30
[5]; 62 g ai/ha
  Plant response rating: Velvetleaf: 35
[5]; 125 g ai/ha
  Plant response rating: Velvetleaf: 50
[5]; 250 g ai/ha
  Plant response rating: Velvetleaf: 65
[6]; 16 g ai/ha
  Plant response rating: Goosegrass: 95
[6]; 31 g ai/ha
  Plant response rating: Goosegrass: 100
[6]; 62 g ai/ha
  Plant response rating: Goosegrass: 100
[6]; 125 g ai/ha
  Plant response rating: Goosegrass: 100
[6]; 250 g ai/ha
  Plant response rating: Goosegrass: 100
[7]; Postemergence, 8 g ai/ha
  Plant response rating: Poinsettia, Wild: 25
[7]; Postemergence, 16 g ai/ha
  Plant response rating: Poinsettia, Wild: 35
[7]; Postemergence, 31 g ai/ha
  Plant response rating: Poinsettia, Wild: 13
[7]; Postemergence, 62 g ai/ha
  Plant response rating: Poinsettia, Wild: 60
[7]; Postemergence, 125 g ai/ha
  Plant response rating: Poinsettia, Wild: 90
[7]; Preemergence, 16 g ai/ha
  Plant response rating: Poinsettia, Wild: 0
[7]; Preemergence, 31 g ai/ha
  Plant response rating: Poinsettia, Wild: 0
[7]; Preemergence, 62 g ai/ha
  Plant response rating: Poinsettia, Wild: 0
[7]; Preemergence, 125 g ai/ha
  Plant response rating: Poinsettia, Wild: 35
[7]; Preemergence, 250 g ai/ha
  Plant response rating: Poinsettia, Wild: 50
[8]; Postemergence, 8 g ai/ha
  Plant response rating: Panicum, Fall: 5
[8]; Postemergence, 16 g ai/ha
  Plant response rating: Panicum, Fall: 10
[8]; Postemergence, 31 g ai/ha
  Plant response rating: Panicum, Fall: 10
[8]; Postemergence, 62 g ai/ha
  Plant response rating: Panicum, Fall: 20
[8]; Postemergence, 125 g ai/ha
  Plant response rating: Panicum, Fall: 25
[8]; Preemergence, 16 g ai/ha
  Plant response rating: Panicum, Fall: 95
[8]; Preemergence, 31 g ai/ha
  Plant response rating: Panicum, Fall: 95
[8]; Preemergence, 62 g ai/ha
  Plant response rating: Panicum, Fall: 100
[8]; Preemergence, 125 g ai/ha
  Plant response rating: Panicum, Fall: 100
[8]; Preemergence, 250 g ai/ha
  Plant response rating: Panicum, Fall: 100
[9]; 16 g ai/ha
  Plant response rating: Ragweed: 0
[9]; 31 g ai/ha
  Plant response rating: Ragweed: 0
[9]; 62 g ai/ha
  Plant response rating: Ragweed: 30
[9]; 125 g ai/ha
  Plant response rating: Ragweed: 35
[9]; 250 g ai/ha
  Plant response rating: Ragweed: 80
[10]; 16 g ai/ha
  Plant response rating: Foxtail, Green: 15
[10]; 31 g ai/ha
  Plant response rating: Foxtail, Green: 85
[10]; 62 g ai/ha
  Plant response rating: Foxtail, Green: 100
[10]; 125 g ai/ha
  Plant response rating: Foxtail, Green: 100
[10]; 250 g ai/ha
  Plant response rating: Foxtail, Green: 100
